Experimental data published in ChEMBL document CHEMBL1201862, “PubChem BioAssay data set” (2004).
Calls of active or inactive are those of the source.

How the values were obtained:
[1] = off-target signal loss in HeLa-CEM21 co-culture – HeLa F-luc CTL cells, cherry-picked, counter-screen for HIV-1 Env fusion inhibitor project, dose response (AID 652040); format: functional, cell-based;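 note: potency for signal decrease marking cytotoxic or nonspecific inhibition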
[2] = blockers of HIV-1 envelope-mediated cell-cell fusion – cherry-pick, dose response (AID 652057); format: functional, cell-based
[3] = test system: Streptococcus sp. 'group A'; test: Streptococcus pyogenes SK(-)GAS viability under kanamycin – luminescence, BacTiterGlo, confirmation, counter-screen for streptokinase expression inhibitor project, dose response (AID 1900); format: functional, organism-based
[4] = HIV-1 AD8 envelope cell-cell fusion blockers – cherry-pick, dose response (AID 652062); format: functional, cell-based;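 note: luciferase signal from cell-cell fusion driven by HIV-1 clade B AD8 Env; potency is for inhibitors of fusion seen as a drop in luminescence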
[5] = viability loss in CEM21 cells – cell-based, CellTiter-Glo luminescence, cherry-picked, cytotoxicity control for viral fusion inhibitor project, dose response (AID 652042); format: functional;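 note: potency for signal decrease meaning cytotoxicity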
[6] = blockers of HIV-1 ZM109 envelope-driven cell-cell fusion – HeLa effector, CEM target cells, luciferase, cherry-pick, dose response (AID 652058); format: functional, cell-based;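 note: luciferase signal from HIV-1 Env mediated cell-cell fusion of effector and target cells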
[7] = test system: Streptococcus; test: GAS UMAA2166 growth inhibition – luminescence, BacTiterGlo, counter-screen for streptokinase expression inhibitor project, dose response (AID 1915); format: functional, organism-based;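 note: potency for reduction of bacterial viability or growth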
[8] = biological target: Heat shock protein HSP 90-alpha (Homo sapiens, UniProt P07900); format: functional, organism-based
[9] = cells; format: functional, cell-based
[10] = biological target: T1, Heat shock factor protein 1 (Mus musculus, UniProt P38532); test: enhancement of HSF1-driven luciferase signal – cell-based, NIH3T3, luminescence, dose retest, confirmation (AID 435004); format: functional;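 note: stress induced by proteasome inhibitor MG132 added 30 min after compound; luciferase reporter driven by HSF1 response element in NIH3T3 cells; actives raise luminescence as potentiators of the MG132 stress response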
T1 sequence (P38532 whole entry): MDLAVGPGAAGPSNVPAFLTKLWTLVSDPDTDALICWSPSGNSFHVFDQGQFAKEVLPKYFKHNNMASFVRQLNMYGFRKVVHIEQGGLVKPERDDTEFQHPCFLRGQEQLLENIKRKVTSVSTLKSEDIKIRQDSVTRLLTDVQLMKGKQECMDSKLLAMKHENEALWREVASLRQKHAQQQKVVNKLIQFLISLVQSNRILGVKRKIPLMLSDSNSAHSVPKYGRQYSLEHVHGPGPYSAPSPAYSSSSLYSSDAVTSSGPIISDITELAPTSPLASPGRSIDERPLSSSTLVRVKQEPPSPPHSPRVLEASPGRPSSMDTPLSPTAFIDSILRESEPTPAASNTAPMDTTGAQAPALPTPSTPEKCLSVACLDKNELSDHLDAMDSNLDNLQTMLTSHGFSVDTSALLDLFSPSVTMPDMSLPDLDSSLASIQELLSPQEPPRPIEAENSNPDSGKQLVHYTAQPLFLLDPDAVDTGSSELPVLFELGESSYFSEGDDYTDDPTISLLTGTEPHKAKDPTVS

[11] = fluconazole-exposed Candida albicans growth modulators – fluorescence, retest, confirmation (AID 2467); format: functional, cell-based
[12] = biological target: Paired box protein Pax-8 (Homo sapiens, UniProt Q06710); test: PAX8 transcriptional activity inhibition in RMG-I – RMG-I cells, luciferase, cherry-pick, dose response (AID 687027); format: functional, cell-based;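 note: luciferase reporter driven by Pax8 target thyroperoxidase promoter measured by SteadyGlo luminescence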
Chain of Paired box protein Pax-8 (Q06710 whole entry): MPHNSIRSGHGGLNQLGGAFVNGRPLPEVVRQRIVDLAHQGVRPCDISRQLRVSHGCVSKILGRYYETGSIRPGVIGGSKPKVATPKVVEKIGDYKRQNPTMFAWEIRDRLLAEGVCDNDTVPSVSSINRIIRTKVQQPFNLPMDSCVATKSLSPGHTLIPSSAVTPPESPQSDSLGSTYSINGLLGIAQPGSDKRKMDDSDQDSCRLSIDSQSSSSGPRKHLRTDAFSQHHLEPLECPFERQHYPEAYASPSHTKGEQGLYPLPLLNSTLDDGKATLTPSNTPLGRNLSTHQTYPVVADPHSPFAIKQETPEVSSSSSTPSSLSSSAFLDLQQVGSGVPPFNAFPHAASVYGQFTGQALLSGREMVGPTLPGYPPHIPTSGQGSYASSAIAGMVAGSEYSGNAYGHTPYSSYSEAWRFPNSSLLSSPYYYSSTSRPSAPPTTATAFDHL

[13] = test system: BJ; test: BJ-TERT-LT-ST fibroblast viability loss – cell-based, RAS-independent, luminescence, dose response (AID 1935); format: functional; conditions: Homo sapiens;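 note: BJ fibroblasts immortalized with TERT plus LT and ST oncogenes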
[14] = cells; format: functional, cell-based; remark: listed apart in the source
[15] = cells; format: functional
[16] = microbe, parasite or virus in culture; format: functional; conditions: Mycobacterium tuberculosis
[17] = biological target: T2, Type-1 angiotensin II receptor (Homo sapiens, UniProt P30556); test: antagonism of angiotensin II type 1 receptor – cell-based, uHTS hits, selectivity assay for APJ receptor antagonist project, dose response (AID 463214); format: functional;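 note: antagonist potency against angiotensin II stimulated AT1 response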
T2 sequence (P30556 whole entry): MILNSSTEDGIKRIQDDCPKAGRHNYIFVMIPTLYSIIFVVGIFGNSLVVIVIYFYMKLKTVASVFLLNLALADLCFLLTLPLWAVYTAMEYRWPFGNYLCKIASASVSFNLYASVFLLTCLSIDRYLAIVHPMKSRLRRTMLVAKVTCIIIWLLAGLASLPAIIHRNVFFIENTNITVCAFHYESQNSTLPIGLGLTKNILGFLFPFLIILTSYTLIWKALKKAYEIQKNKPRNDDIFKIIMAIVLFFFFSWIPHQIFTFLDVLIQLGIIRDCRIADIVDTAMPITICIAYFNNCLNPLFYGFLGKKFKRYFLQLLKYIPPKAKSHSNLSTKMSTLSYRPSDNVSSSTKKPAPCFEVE

[18] = HepG2 cell cytotoxicity, dose response, cytotoxicity control for non-replicating M. tuberculosis project (AID 489018); format: functional; conditions: Mycobacterium tuberculosis
[19] = THP-1 cell cytotoxicity, dose response, cytotoxicity control for non-replicating M. tuberculosis project (AID 489025); format: functional
[20] = decrease of insulin promoter-GFP reporter – imaging, high-content screening, mouse beta cells (AID 1628); format: functional; conditions: MIN6
[21] = non-specific 3'UTR reporter inhibition in Clone20-Shn3RL – cell-based, Renilla luciferase, cherry-picked, counter-screen for Shn3 inhibitor project, dose response (AID 624133); format: functional

CCc1ccc(S(=O)(=O)/N=C2\C=C(Nc3ccc(C(=O)O)cc3)C(=O)c3ccccc32)cc1
active: AC50 [1] 1.29 µM | AC50 [2] 8.79 µM | EC50 [3] 0.451 µM | AC50 [4] 3.52 µM | AC50 [5] 6.53 µM | AC50 [6] 6.74 µM | EC50 [7] 6.26 µM

COc1cccc(/C=N/Nc2ccc([N+](=O)[O-])cn2)c1O
inconclusive: EC50 [13] 4.96 µM
active: AC50 [8] 3.85 µM | EC50 [9] 5.16 µM | EC50 [10] 3.08 µM | EC50 [11] 1.51 µM | EC50 [3] 0.912 µM | AC50 [12] 6.41 µM | EC50 [7] 1.65 µM
> 350 µM (not active): EC50 [14]

Oc1c(C(c2ccccc2Cl)N2CCCC2)ccc2cccnc12 (configuration not stated)
> 350 µM (not active): EC50 [9]
active: AC50 [8] 3.34 µM | IC50 [15] 13.2 µM | CC50 [16] 30.5 µM | IC50 [17] 12 µM | EC50 [11] 1.08 µM | CC50 [18] 17.6 µM | CC50 [19] 9.54 µM | IC50 [20] 5.2 µM | EC50 [14] 27.4 µM | AC50 [21] 6.38 µM
